Source: patent US20230002327A1, “SMALL-MOLECULE REGULATOR OF TLR8” (TSINGHUA UNIVERSITY, priority 2019, published 2023)

Columns and labels:
TLR8 = biological target: T1, TLR8 (Homo sapiens, UniProt Q9NR97); experiment: Inhibition of R848-induced signaling in HEK-Blue hTLR8 cell line (Quanti-Blue); type: cell-based; conditions: HEK-Blue hTLR8 cell line; for IC50: R848-induced signaling, value ± standard deviation, at least triplicate; for Remaining R848-induced TLR8 signaling (normalized activity; ligand+DMSO = 1, untreated = 0): ligand+DMSO = 100% activity
T1 construct: host or cells: HEK-Blue hTLR8 (HEK293-derived SEAP reporter cells)
T1 sequence (Q9NR97 27-1041): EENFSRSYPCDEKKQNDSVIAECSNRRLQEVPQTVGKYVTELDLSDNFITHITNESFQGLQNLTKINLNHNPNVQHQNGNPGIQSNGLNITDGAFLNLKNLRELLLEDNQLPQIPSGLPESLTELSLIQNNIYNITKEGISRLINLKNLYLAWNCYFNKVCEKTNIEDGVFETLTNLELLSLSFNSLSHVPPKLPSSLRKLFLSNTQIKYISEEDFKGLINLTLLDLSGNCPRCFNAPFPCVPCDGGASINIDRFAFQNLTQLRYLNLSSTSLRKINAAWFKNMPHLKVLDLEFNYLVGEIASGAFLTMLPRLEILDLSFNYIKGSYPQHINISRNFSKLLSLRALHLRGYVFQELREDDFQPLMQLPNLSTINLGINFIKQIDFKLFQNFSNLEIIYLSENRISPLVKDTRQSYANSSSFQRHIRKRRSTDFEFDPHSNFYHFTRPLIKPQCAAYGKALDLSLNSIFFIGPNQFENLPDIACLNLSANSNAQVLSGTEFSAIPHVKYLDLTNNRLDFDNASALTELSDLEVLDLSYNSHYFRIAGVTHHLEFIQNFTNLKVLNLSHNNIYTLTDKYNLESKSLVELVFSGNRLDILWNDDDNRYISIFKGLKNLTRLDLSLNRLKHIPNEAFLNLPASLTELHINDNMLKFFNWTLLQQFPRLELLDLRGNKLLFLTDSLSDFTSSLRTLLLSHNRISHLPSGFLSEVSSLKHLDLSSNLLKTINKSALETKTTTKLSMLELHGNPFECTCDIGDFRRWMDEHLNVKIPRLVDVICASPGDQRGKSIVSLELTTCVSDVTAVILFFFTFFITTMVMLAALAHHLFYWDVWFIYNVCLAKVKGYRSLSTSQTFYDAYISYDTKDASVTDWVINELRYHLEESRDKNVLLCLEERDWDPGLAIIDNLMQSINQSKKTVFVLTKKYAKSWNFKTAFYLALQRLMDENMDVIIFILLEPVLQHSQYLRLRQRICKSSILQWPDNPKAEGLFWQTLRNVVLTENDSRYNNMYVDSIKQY
Experimental: (§1) HEK Blue hTLR8 cells or HEK Blue hTLR7 cells were cultured in DMEM medium supplemented with 10% fetal bovine serum, penicillin (100 U/mL) and streptomycin ([…]). Thereafter, cells were seeded in 96-well plate (45,000 cells per well), and were cultured for 24 hours in a humidified incubator (37° C., 5% CO2).
After 24 hours, the supernatant and suspending cells were aspirated and replaced with fresh serum-free DMEM.
(§2) After 24 hours, 50 μL of the medium was aspirated from each well and then added to a new 96-well plate, followed by the addition of 50 μL of Quanti-Blue in each well and the incubation at 37° C. in darkness. Changes in color would occur in the […] within 60 minutes, and the absorbance was measured at 620 nm by using the multi-mode plate reader Vrioskan Flash. Inhibition rate (%)=[R848 (OD620)−Compound (OD620)]/[R848 (OD620)−Control (OD620)]×100%. Among these, the control group was only added with the same amount of cells. Finally, the software Prism 6.0 was utilized to plot a graph and calculate IC50 values. Or, the activity of the cells treated with ligand and DMSO was defined as 100% activity, and the activity of the untreated cells was defined as 0% activity.

TLR7 = biological target: T2, TLR7 (Homo sapiens, UniProt Q9NYK1); experiment: Inhibition of R848-induced signaling in HEK-Blue hTLR7 cell line (Quanti-Blue); type: cell-based
T2 construct: host or cells: HEK-Blue hTLR7 (HEK293-derived SEAP reporter cells)
T2 sequence (Q9NYK1 27-1049): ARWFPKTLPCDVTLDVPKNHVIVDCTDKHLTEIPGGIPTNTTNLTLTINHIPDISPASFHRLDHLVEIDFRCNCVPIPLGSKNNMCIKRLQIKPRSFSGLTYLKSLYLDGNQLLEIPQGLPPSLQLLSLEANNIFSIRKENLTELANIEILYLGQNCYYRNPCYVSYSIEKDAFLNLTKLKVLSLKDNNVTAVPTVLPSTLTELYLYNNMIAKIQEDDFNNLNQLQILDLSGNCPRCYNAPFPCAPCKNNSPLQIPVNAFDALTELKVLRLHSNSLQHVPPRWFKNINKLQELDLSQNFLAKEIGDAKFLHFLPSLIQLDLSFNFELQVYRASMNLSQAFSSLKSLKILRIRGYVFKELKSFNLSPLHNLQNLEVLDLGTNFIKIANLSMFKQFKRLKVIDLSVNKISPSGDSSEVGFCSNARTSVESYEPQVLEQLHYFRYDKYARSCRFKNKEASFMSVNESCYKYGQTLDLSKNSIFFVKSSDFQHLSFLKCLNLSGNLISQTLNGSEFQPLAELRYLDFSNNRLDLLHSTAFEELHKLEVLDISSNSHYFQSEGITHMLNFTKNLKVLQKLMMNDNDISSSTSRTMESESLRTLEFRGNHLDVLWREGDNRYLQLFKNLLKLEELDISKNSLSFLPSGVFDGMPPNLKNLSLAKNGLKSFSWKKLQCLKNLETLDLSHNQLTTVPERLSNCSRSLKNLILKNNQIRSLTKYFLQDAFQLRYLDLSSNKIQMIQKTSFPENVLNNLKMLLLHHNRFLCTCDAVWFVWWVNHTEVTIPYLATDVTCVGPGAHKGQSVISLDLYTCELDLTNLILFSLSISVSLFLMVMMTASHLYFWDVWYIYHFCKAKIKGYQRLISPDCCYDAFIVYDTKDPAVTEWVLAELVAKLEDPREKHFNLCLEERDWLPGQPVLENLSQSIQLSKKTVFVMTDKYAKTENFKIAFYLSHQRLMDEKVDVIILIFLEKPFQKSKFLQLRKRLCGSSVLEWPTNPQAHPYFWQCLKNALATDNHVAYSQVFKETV
Experimental: as §1
After 24 hours, the supernatant and suspending cells were aspirated and replaced with fresh serum-free DMEM. Cells were treated with 1 μg/mL of R848 (agonist of TLR7/8) or 5 μg/mL of ssRNA40/LyoVec or 5 μg/mL of ORN06/LyoVec (InvivoGen) and compounds with specified concentrations, and were placed in a humidified incubator (37° C., 5% CO2) for co-culture.
as §2

Compound	IC50 (TLR8) [nM]	Remaining R848-induced TLR8 signaling (normalized activity; ligand+DMSO = 1, untreated = 0) (TLR8)	TLR7 (normalized inhibitory effect on R848-induced signaling) (TLR7)
Fc1cccc(-n2cnnc2SCc2c(Cl)cccc2Cl)c1 [Compound 1, 3-((2,6-dichlorobenyl)thio)-4-(3-fluorophenyl)-4H-1,2,4-triazole]	1950 ± 190		
Cc1nnc(SCc2c(Cl)cccc2Cl)n1-c1cccc(F)c1 [Compound 2, 3-((2,6-dichlorobenzyl)thio)-4-(3-fluorophenyl)-5-methyl-4H-1,2,4-triazole]	6180 ± 290		
CSc1nnc(CCO)n1-c1ccc(Cl)cc1Cl [Compound 4, 2-(4-(2,4-dichlorophenyl)-5-(methylthio)-4H-1,2,4-triazole-3-yl)ethan-1-ol]	590 ± 30		
CCCc1nnc(SC)n1-c1ccc(Cl)cc1Cl [Compound 7, 4-(2,4-dichlorophenyl)-3-(methylthio)-5-propyl-4H-1,2,4-triazole]	630 ± 20		
CCSc1nnc(CCCO)n1-c1ccc(Cl)cc1Cl [Compound 11, 3-(4-(2,4-dichlorophenyl)-5-(ethylthio)-4H-1,2,4-triazole-3-yl)propan-1-ol]	390 ± 40		
CC(C)Sc1nnc(CCCO)n1-c1ccc(Cl)cc1Cl [Compound 12, 3-(4-(2,4-dichlorophenyl)-5-(isopropylthio)-4H-1,2,4-triazole-3-yl)propan-1-ol]	10100 ± 800		
OCCCc1nnc(SCC2CC2)n1-c1ccc(Cl)cc1Cl [Compound 13, 3-(5-((cyclopropylmethyl)thio)-4-(2,4-dichlorophenyl)-4H-1,2,4-triazole-3-yl)propan-1-ol]	8010 ± 130		
CSc1nnc(CCCO)n1-c1ccc(F)cc1F [Compound 15, 3-(4-(2,4-difluorophenyl)-5-(methylthio)-4H-1,2,4-triazole-3-yl)propan-1-ol]	2130 ± 560		
CSc1nnc(CCCO)n1-c1ccccc1Cl [Compound 17, 3-(4-(2-chlorophenyl)-5-(methylthio)-4H-1,2,4-triazole-3-yl)propan-1-ol]	980		
CSc1nnc(CCCO)n1-c1cccc(Cl)c1 [Compound 18, 3-(4-(3-chlorophenyl)-5-(methylthio)-4H-1,2,4-triazole-3-yl)propan-1-ol]	350 ± 20		
CSc1nnc(CCCO)n1-c1ccc(Cl)c(Cl)c1 [Compound 19, 3-(4-(3,4-dichlorophenyl)-5-(methylthio)-4H-1,2,4-triazole-3-yl)propan-1-ol]	190 ± 10		
CSc1nnc(CCCO)n1-c1cccc(Cl)c1Cl [Compound 20, 3-(4-(2,3-dichlorophenyl)-5-(methylthio)-4H-1,2,4-triazole-3-yl)propan-1-ol]	800 ± 70		
CSc1nnc(CCCO)n1-c1c(Cl)cc(Cl)cc1Cl [Compound 21, 3-(5-(methylthio)-4-(2,4,6-trichlorophenyl)-4H-1,2,4-triazole-3-yl)propan-1-ol]	2810 ± 440		
CSc1nnc(CCCO)n1-c1ccc(Cl)c(Cl)c1Cl [Compound 22, 3-(5-(methylthio)-4-(2,3,4-trichlorophenyl)-4H-1,2,4-triazole-3-yl)propan-1-ol]	600 ± 100		
CSc1nnc(CCCO)n1-c1cc(Cl)c(Cl)c(Cl)c1 [Compound 23, 3-(5-(methylthio)-4-(3,4,5-trichlorophenyl)-4H-1,2,4-triazole-3-yl)propan-1-ol]	110 ± 10		
COc1ccc(-n2c(CCCO)nnc2SC)cc1 [Compound 25, 3-(4-(4-methoxyphenyl)-5-(methylthio)-4H-1,2,4-triazole-3-yl)propan-1-ol]	3860 ± 310		
CSc1nnc(CCCO)n1-c1ccc(C(F)(F)F)cc1 [Compound 26, 3-(5-(methylthio)-4-(4-(trifluoromethyl)phenyl)-4H-1,2,4-triazole-3-yl)propan-1-ol]	4840 ± 820		
OCCCc1nnc(SCc2c(Cl)cccc2Cl)n1-c1ccc(F)cc1F [Compound 33, 3-(5-((2,6-dichlorobenzyl)thio)-4-(2,4-difluorophenyl)-4H-1,2,4-triazole-3-yl)propan-1-ol]	8440 ± 780		
OCCCCc1nnc(SCc2c(Cl)cccc2Cl)n1-c1ccc(F)cc1F [Compound 34, 4-(5-((2,6-dichlorobenzyl)thio)-4-(2,4-difluorophenyl)-4H-1,2,4-triazole-3-yl)butan-1-ol]	11400 ± 700		
CSc1nnc(CCCO)n1-c1cnc2ccccc2c1 [Compound 36, 3-(5-(methylthio)-4-(quinolin-3-yl)-4H-1,2,4-triazole-3-yl)propan-1-ol]	740		
CSc1nnc(CCCO)n1-c1ccc2ncccc2c1 [Compound 37, 3-(5-(methylthio)-4-(quinolin-6-yl)-4H-1,2,4-triazole-3-yl)propan-1-ol]	650 ± 10		
CCOCc1nc(C(C)(C)O)c(-c2ccccc2)n1CC(C)(C)O [Compound 47, 1-[2-(ethoxymethyl)-4-(2-hydroxypropan-2-yl)-5-phenyl-1H-imidazole-1-yl]-2-methylpropan-2-ol]		0.9 ± 0.1	0.8 ± 0.0
CCOCc1nc(-c2ccccc2)c(-c2ccccc2)n1CC(C)(C)O [Compound 49, 1-[2-(ethoxymethyl)-4,5-diphenyl-1H-imidazole-1-yl]-2-methylpropan-2-ol]		0.6 ± 0.0	0.8 ± 0.0
CC(C)Cn1cnc(I)c1-c1ccccc1 [Compound 59, 4-iodo-1-(2-methylpropyl)-5-phenyl-1H-imidazole]		0.2 ± 0.1	0.2 ± 0.1
